Measured values taken from patent US12679843B2, “Pyrrolopyrimidine amines as complement inhibitors” (BioCryst Pharmaceuticals, Inc., priority 2020, dated 2026).

Molecular target: Factor D (Homo sapiens, UniProt P00746)
Test: Factor D esterolytic assay (Z-Lys-SBzl thioester substrate, DTNB, 405 nm)
Type: biochemical
Settings: substrate Z-Lys-SBzl 1.29 mM, 100 mM HEPES, 500 mM NaCl, pH 7.5, 10% DMSO, tested a minimum of three times
Summary of the method: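 Human Factor D hydrolysis of Z-Lys-SBzl (1.29 mM) monitored at 405 nm via DTNB thiol detection for 600 s, 690 nm background subtracted. Buffer 100 mM HEPES, 500 mM NaCl, pH 7.5, 10% DMSO; substrate added immediately or after room-temperature preincubation. IC50 from percent inhibition of rate, at least three tests.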

Chain of Factor D (P00746 26-253): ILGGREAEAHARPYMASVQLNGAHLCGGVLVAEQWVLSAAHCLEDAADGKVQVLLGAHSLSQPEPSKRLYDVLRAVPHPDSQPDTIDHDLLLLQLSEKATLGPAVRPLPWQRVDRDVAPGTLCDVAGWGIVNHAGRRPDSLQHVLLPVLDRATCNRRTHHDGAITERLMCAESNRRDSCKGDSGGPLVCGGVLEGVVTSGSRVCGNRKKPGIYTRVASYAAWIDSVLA

Row | IC50 [nM] | SMILES
1 | < 100 | C[C@@]1(F)C[C@@H](C(=O)Nc2cccc(Br)n2)N(C(=O)Cn2c3ccc(C(F)(F)F)cc3c3c(N)ncnc32)C1 [Compound 207b, (2S,4R)-1-(2-(4-amino-6-(trifluoromethyl)-9H-pyrimido[4,5-b]indol-9-yl)acetyl)-N-(6-bromopyridin-2-yl)-4-fluoro-4-methylpyrrolidine-2-carboxamide]
2 | < 100 | C[C@H]1C[C@@H](C(=O)Nc2cccc(Br)n2)N(C(=O)Cn2c3ccc(C(F)(F)F)cc3c3c(N)ncnc32)C1 [Compound 208d, (2S,4S)-1-(2-(4-amino-6-(trifluoromethyl)-9H-pyrimido[4,5-b]indol-9-yl)acetyl)-N-(6-bromopyridin-2-yl)-4-methylpyrrolidine-2-carboxamide]
3 | < 100 | Cc1ccc(Br)nc1NC(=O)[C@@H]1C[C@@](C)(F)CN1C(=O)Cn1c2ccc(C(F)(F)F)cc2c2c(N)ncnc21 [Compound 209b, (2S,4R)-1-(2-(4-amino-6-(trifluoromethyl)-9H-pyrimido[4,5-b]indol-9-yl)acetyl)-N-(6-bromo-3-methylpyridin-2-yl)-4-fluoro-4-methylpyrrolidine-2-carboxamide]
4 | 100 to 1000 | CC1(C)C[C@@H](C(=O)Nc2cccc(Br)n2)N(C(=O)Cn2c3ccc(C(F)(F)F)cc3c3c(N)ncnc32)C1 [Compound 210d, (S)-1-(2-(4-amino-6-(trifluoromethyl)-9H-pyrimido[4,5-b]indol-9-yl)acetyl)-N-(6-bromopyridin-2-yl)-4,4-dimethylpyrrolidine-2-carboxamide]
5 | 100 to 1000 | NC[C@@H]1C[C@@H](C(=O)Nc2cccc(Br)n2)N(C(=O)Cn2c3ccc(C(F)(F)F)cc3c3c(N)ncnc32)C1 [Compound 211e, (2S,4S)-1-(2-(4-amino-6-(trifluoromethyl)-9H-pyrimido[4,5-b]indol-9-yl)acetyl)-4-(aminomethyl)-N-(6-bromopyridin-2-yl)pyrrolidine-2-carboxamide]
6 | 100 to 1000 | NC[C@H]1C[C@@H](C(=O)Nc2cccc(Br)n2)N(C(=O)Cn2c3ccc(C(F)(F)F)cc3c3c(N)ncnc32)C1 [Compound 212e, (2S,4R)-1-(2-(4-amino-6-(trifluoromethyl)-9H-pyrimido[4,5-b]indol-9-yl)acetyl)-4-(aminomethyl)-N-(6-bromopyridin-2-yl)pyrrolidine-2-carboxamide]
7 | < 100 | C[C@@]1(F)C[C@@H](C(=O)Nc2cncc(Br)n2)N(C(=O)Cn2c3ccc(C(F)(F)F)cc3c3c(N)ncnc32)C1 [Compound 213d, (2S,4R)-1-(2-(4-amino-6-(trifluoromethyl)-9H-pyrimido[4,5-b]indol-9-yl)acetyl)-N-(6-bromopyrazin-2-yl)-4-fluoro-4-methylpyrrolidine-2-carboxamide]
8 | < 100 | C[C@@]12C[C@@H](C(=O)Nc3cccc(Br)n3)N(C(=O)Cn3c4ccc(CCC(=O)O)cc4c4c(N)ncnc43)[C@@H]1C2 [Compound 214b, 3-(4-amino-9-(2-((1R,3S,5R)-3-((6-bromopyridin-2-yl)carbamoyl)-5-methyl-2-azabicyclo[3.1.0]hexan-2-yl)-2-oxoethyl)-9H-pyrimido[4,5-b]indol-6-yl)propanoic acid]
9 | < 100 | CN(C)c1ccc2c(c1)c1c(N)ncnc1n2CC(=O)N1[C@H](C(=O)Nc2cccc(Br)n2)C[C@@]2(C)C[C@@H]12 [Compound 215g, (1R,3S,5R)-2-(2-(4-amino-6-(dimethylamino)-9H-pyrimido[4,5-b]indol-9-yl)acetyl)-N-(6-bromopyridin-2-yl)-5-methyl-2-azabicyclo[3.1.0]hexane-3-carboxamide]
10 | < 100 | COC(=O)c1cc(C)c2c(c1)c1c(N)ncnc1n2CC(=O)N1[C@H](C(=O)Nc2cccc(Br)n2)C[C@@]2(C)C[C@@H]12 [Compound 216g, methyl 4-amino-9-(2-((1R,3S,5R)-3-((6-bromopyridin-2-yl)carbamoyl)-5-methyl-2-azabicyclo[3.1.0]hexan-2-yl)-2-oxoethyl)-8-methyl-9H-pyrimido[4,5-b]indole-6-carboxylate]
11 | < 100 | COC(=O)c1cc(C)c2c(c1)c1c(N)ncnc1n2CC(=O)N1[C@@H]2C[C@@H]2C[C@H]1C(=O)Nc1cccc(Br)n1 [Compound 217a, methyl 4-amino-9-(2-((1R,3S,5R)-3-((6-bromopyridin-2-yl)carbamoyl)-2-azabicyclo[3.1.0]hexan-2-yl)-2-oxoethyl)-8-methyl-9H-pyrimido[4,5-b]indole-6-carboxylate]
12 | < 100 | Cc1cc(C(=O)O)cc2c3c(N)ncnc3n(CC(=O)N3[C@@H]4C[C@@H]4C[C@H]3C(=O)Nc3cccc(Br)n3)c12 [Compound 218a, 4-amino-9-(2-((1R,3S,5R)-3-((6-bromopyridin-2-yl)carbamoyl)-2-azabicyclo[3.1.0]hexan-2-yl)-2-oxoethyl)-8-methyl-9H-pyrimido[4,5-b]indole-6-carboxylic acid]
13 | < 100 | Cc1cc(C(=O)O)cc2c3c(N)ncnc3n(CC(=O)N3[C@H](C(=O)Nc4cccc(Br)n4)C[C@@]4(C)C[C@@H]34)c12 [Compound 219a, 4-amino-9-(2-((1R,3S,5R)-3-((6-bromopyridin-2-yl)carbamoyl)-5-methyl-2-azabicyclo[3.1.0]hexan-2-yl)-2-oxoethyl)-8-methyl-9H-pyrimido[4,5-b]indole-6-carboxylic acid]
14 | 100 to 1000 | Nc1ncnc2c1c1cccc(C(=O)O)c1n2CC(=O)N1[C@@H]2C[C@@H]2C[C@H]1C(=O)Nc1cccc(Br)n1 [Compound 220a, 4-amino-9-(2-((1R,3S,5R)-3-((6-bromopyridin-2-yl)carbamoyl)-2-azabicyclo[3.1.0]hexan-2-yl)-2-oxoethyl)-9H-pyrimido[4,5-b]indole-8-carboxylic acid]
15 | < 100 | COC(=O)c1cccc2c1c1c(N)ncnc1n2CC(=O)N1[C@H](C(=O)Nc2cccc(Br)n2)C[C@@]2(C)C[C@@H]12 [Compound 221c, methyl 4-amino-9-(2-((1R,3S,5R)-3-((6-bromopyridin-2-yl)carbamoyl)-5-methyl-2-azabicyclo[3.1.0]hexan-2-yl)-2-oxoethyl)-9H-pyrimido[4,5-b]indole-5-carboxylate]
16 | > 1000 | C[C@@]12C[C@@H](C(=O)Nc3cccc(Br)n3)N(C(=O)Cn3c4cccc(C(=O)O)c4c4c(N)ncnc43)[C@@H]1C2 [Compound 222a, 4-amino-9-(2-((1R,3S,5R)-3-((6-bromopyridin-2-yl)carbamoyl)-5-methyl-2-azabicyclo[3.1.0]hexan-2-yl)-2-oxoethyl)-9H-pyrimido[4,5-b]indole-5-carboxylic acid]
17 | < 100 | COC(=O)c1cccc2c3c(N)ncnc3n(CC(=O)N3[C@H](C(=O)Nc4cccc(Br)n4)C[C@@]4(C)C[C@@H]34)c12 [Compound 223a, methyl 4-amino-9-(2-((1R,3S,5R)-3-((6-bromopyridin-2-yl)carbamoyl)-5-methyl-2-azabicyclo[3.1.0]hexan-2-yl)-2-oxoethyl)-9H-pyrimido[4,5-b]indole-8-carboxylate]
18 | > 1000 | Nc1ncnc2c1c1c(C(=O)O)cccc1n2CC(=O)N1[C@@H]2C[C@@H]2C[C@H]1C(=O)Nc1cccc(Br)n1 [Compound 224b, 4-amino-9-(2-((1R,3S,5R)-3-((6-bromopyridin-2-yl)carbamoyl)-2-azabicyclo[3.1.0]hexan-2-yl)-2-oxoethyl)-9H-pyrimido[4,5-b]indole-5-carboxylic acid]
19 | < 100 | COC(=O)Nc1ccc2c(c1)c1c(N)ncnc1n2CC(=O)N1[C@@H]2C[C@@H]2C[C@H]1C(=O)Nc1cccc(Br)n1 [Compound 225e, methyl (4-amino-9-(2-((1R,3S,5R)-3-((6-bromopyridin-2-yl)carbamoyl)-2-azabicyclo[3.1.0]hexan-2-yl)-2-oxoethyl)-9H-pyrimido[4,5-b]indol-6-yl)carbamate]
20 | < 100 | Nc1ncnc2c1c1cc(-c3ccncc3)ccc1n2CC(=O)N1[C@@H]2C[C@@H]2C[C@H]1C(=O)Nc1cccc(Br)n1 [Compound 226c, (1R,3S,5R)-2-(2-(4-amino-6-(pyridin-4-yl)-9H-pyrimido[4,5-b]indol-9-yl)acetyl)-N-(6-bromopyridin-2-yl)-2-azabicyclo[3.1.0]hexane-3-carboxamide]
21 | < 100 | Nc1ncnc2c1c1ccc(-c3ccccc3)cc1n2CC(=O)N1[C@@H]2C[C@@H]2C[C@H]1C(=O)Nc1cccc(Br)n1 [Compound 227c, (1R,3S,5R)-2-(2-(4-amino-7-phenyl-9H-pyrimido[4,5-b]indol-9-yl)acetyl)-N-(6-bromopyridin-2-yl)-2-azabicyclo[3.1.0]hexane-3-carboxamide]
22 | < 100 | C[C@@]12C[C@@H](C(=O)Nc3cccc(Br)n3)N(C(=O)Cn3c4cc(-c5ccccc5)ccc4c4c(N)ncnc43)[C@@H]1C2 [Compound 228a, (1R,3S,5R)-2-(2-(4-amino-7-phenyl-9H-pyrimido[4,5-b]indol-9-yl)acetyl)-N-(6-bromopyridin-2-yl)-5-methyl-2-azabicyclo[3.1.0]hexane-3-carboxamide]
23 | < 100 | Cc1cc(-c2ccccc2)cc2c3c(N)ncnc3n(CC(=O)N3[C@@H]4C[C@@H]4C[C@H]3C(=O)Nc3cccc(Br)n3)c12 [Compound 229c, (1R,3S,5R)-2-(2-(4-amino-8-methyl-6-phenyl-9H-pyrimido[4,5-b]indol-9-yl)acetyl)-N-(6-bromopyridin-2-yl)-2-azabicyclo[3.1.0]hexane-3-carboxamide]
24 | < 100 | Cc1cc(-c2ccccc2)cc2c3c(N)ncnc3n(CC(=O)N3[C@H](C(=O)Nc4cccc(Br)n4)C[C@@]4(C)C[C@@H]34)c12 [Compound 230a, (1R,3S,5R)-2-(2-(4-amino-8-methyl-6-phenyl-9H-pyrimido[4,5-b]indol-9-yl)acetyl)-N-(6-bromopyridin-2-yl)-5-methyl-2-azabicyclo[3.1.0]hexane-3-carboxamide]
